Source: ChEMBL document CHEMBL1201862, “PubChem BioAssay data set” (2004)
Calls of active or inactive are those of the source.

How the values were obtained:
[1] = biological target: Ras and Rab interactor 1/Tyrosine-protein kinase ABL1 (Homo sapiens, UniProt P00519+Q13671); format: functional;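 further: biochemical TR-FRET dose-response test measuring inhibition of binding between Rin1 and Abl proteins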
[2] = biological target: Protein Wnt-3a (Mus musculus, UniProt P27467); experiment: Wnt3a-driven reporter signaling inhibition, dose response, selectivity assay for Gli-SUFU antagonist project, Wnt-LIGHT cells, luminescence (AID 651570); format: functional; conditions: read-out: IC50_Mean;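 further: Wnt-LIGHT reporter cells stimulated with conditioned medium from Wnt3a-producing cells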
Sequence of Protein Wnt-3a (P27467 whole entry): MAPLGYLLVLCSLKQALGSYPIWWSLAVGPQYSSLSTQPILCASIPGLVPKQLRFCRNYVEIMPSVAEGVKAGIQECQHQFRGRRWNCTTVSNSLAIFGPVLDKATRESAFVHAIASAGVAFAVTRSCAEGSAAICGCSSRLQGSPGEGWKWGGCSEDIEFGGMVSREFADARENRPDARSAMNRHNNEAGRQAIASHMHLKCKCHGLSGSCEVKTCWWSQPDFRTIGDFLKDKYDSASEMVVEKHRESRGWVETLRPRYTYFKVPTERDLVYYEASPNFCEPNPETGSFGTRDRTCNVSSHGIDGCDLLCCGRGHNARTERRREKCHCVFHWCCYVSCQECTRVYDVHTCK

[3] = Luminescence-based cell-based high throughput dose response assay to identify activators of the DAF-12 from the parasite S. stercoralis (ssDAF-12).; format: functional
[4] = biological target: Tumor necrosis factor (Homo sapiens, UniProt P01375); experiment: TNFa-triggered NF-kB activation inhibitors, SAR follow-up, cell-based, revised (AID 2337); format: functional
Sequence of Tumor necrosis factor (P01375 whole entry, the tested form may be a part): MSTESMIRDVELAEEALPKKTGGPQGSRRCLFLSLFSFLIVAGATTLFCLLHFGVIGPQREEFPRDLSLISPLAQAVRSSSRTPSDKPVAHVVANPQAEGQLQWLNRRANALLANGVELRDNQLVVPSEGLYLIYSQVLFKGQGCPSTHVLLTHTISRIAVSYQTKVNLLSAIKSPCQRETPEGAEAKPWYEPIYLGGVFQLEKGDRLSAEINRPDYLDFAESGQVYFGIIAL

[5] = biological target: T1, Nucleotide-binding oligomerization domain-containing protein 1 (Homo sapiens, UniProt Q9Y239); experiment: NOD1 signaling inhibitors, SAR follow-up, revised (AID 2333); format: functional
T1 sequence (Q9Y239 whole entry): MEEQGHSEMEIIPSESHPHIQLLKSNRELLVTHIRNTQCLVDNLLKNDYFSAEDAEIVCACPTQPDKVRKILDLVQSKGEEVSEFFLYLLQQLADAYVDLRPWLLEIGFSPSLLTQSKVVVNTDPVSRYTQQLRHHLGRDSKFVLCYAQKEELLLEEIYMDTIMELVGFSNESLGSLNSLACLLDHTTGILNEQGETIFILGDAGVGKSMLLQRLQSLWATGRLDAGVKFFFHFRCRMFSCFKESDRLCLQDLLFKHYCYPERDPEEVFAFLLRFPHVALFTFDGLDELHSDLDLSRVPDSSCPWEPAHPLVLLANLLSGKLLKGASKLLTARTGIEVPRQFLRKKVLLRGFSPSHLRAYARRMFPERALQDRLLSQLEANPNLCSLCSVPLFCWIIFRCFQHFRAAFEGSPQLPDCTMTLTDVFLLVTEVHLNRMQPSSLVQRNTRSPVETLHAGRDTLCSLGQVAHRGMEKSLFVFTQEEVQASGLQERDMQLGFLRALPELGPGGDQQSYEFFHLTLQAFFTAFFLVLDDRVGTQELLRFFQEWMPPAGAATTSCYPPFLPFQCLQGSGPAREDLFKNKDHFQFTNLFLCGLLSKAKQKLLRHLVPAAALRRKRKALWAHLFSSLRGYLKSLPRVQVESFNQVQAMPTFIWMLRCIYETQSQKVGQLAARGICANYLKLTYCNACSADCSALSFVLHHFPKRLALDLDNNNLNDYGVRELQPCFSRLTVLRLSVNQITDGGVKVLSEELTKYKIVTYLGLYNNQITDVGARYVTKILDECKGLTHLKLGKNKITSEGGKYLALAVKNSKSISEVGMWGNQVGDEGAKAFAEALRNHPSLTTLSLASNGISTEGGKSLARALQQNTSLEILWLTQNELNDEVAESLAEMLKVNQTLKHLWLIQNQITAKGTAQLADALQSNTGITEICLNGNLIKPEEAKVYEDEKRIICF

[6] = test system: INS1; experiment: beta cell apoptosis inhibitors, cytokine rescue, dose response, luminescence, retest (AID 449756); format: functional, cell-based; conditions: Rattus norvegicus;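 further: cell death triggered by IL-1 beta plus TNF-alpha plus IFN-gamma mixture; protective hits raise ATP signal compared with cytokine alone wells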
[7] = biological target: Galanin receptor type 3 (Homo sapiens, UniProt O60755); experiment: Fluorescence-based cell-based primary high throughput dose response assay to identify antagonists of the Galanin Receptor 3 (GalR3).; format: functional
Sequence of Galanin receptor type 3 (O60755 whole entry): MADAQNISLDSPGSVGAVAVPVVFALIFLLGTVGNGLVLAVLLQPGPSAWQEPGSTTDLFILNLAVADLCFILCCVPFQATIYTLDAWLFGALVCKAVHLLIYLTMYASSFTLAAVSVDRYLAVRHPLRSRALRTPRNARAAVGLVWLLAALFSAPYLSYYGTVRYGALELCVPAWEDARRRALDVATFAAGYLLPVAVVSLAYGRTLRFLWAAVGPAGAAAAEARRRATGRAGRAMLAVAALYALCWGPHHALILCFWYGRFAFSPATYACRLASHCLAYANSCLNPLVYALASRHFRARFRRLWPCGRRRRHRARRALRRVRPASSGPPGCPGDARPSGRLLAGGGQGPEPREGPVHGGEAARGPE

[8] = cells; format: functional, cell-based; conditions: HEK-CNG
[9] = biological target: T2, COUP transcription factor 2 (Homo sapiens, UniProt P24468); experiment: Luminescence-based cell-based high throughput dose response assay to identify inhibitors of COUP-TFII (NR2F2).; format: functional;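 further: HEK293 cells transiently cotransfected with COUP-TFII expression vector and reporter; luciferase reporter luminescence driven by COUP-TFII from the pX2-168 reporter plasmid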
T2 sequence (P24468 whole entry): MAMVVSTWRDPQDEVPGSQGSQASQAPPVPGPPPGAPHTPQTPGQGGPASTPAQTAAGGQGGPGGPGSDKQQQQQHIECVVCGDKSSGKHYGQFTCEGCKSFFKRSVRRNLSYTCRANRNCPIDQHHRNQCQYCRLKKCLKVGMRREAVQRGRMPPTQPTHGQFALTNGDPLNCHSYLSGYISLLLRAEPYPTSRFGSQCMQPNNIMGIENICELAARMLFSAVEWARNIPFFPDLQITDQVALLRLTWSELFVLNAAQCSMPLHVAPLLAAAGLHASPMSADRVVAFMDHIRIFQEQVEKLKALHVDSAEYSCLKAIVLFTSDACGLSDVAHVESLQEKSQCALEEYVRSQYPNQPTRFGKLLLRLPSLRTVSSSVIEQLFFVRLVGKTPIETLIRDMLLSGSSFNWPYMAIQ

[10] = test system: HEK293; experiment: cells; conditions: Homo sapiens;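 further: cells exposed to compound for 14 hours overnight before viability readout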
[11] = test system: Streptococcus sp. 'group A'; experiment: growth inhibition of control SK(-) GAS strain, dose response, counter-screen for streptokinase expression inhibitor project, luminescence, kanamycin, BacTiterGlo, confirmation (AID 1900); format: functional, organism-based
[12] = biological target: T3, Streptokinase A (Streptococcus pyogenes serotype M1, UniProt P10520); experiment: S. pyogenes streptokinase expression inhibitors, potency, dose response, plasminogen activation absorbance, OD405 (AID 1914); format: functional, Streptococcus pyogenes M1 GAS;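 further: secreted streptokinase activity via plasminogen activation per viability signal from cell pellet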
T3 sequence (P10520 whole entry): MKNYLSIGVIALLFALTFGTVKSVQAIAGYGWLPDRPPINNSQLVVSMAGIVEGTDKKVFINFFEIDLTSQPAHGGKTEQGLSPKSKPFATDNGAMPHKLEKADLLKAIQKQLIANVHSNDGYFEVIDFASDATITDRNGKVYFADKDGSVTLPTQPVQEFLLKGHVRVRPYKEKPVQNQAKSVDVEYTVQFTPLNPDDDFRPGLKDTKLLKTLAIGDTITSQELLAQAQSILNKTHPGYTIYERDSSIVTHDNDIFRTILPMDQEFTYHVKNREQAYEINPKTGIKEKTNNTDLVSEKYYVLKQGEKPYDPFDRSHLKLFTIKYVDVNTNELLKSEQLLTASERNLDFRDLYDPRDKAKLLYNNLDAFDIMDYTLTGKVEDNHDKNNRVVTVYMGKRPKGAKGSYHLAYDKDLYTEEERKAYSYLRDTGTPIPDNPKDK

[13] = inhibitors of intracellular T. cruzi replication, confirmation, NIH3T3 host cells, beta-gal luminescence (AID 2044); format: functional, cell-based;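 further: intracellular parasites grown in NIH/3T3 mouse fibroblasts as host cells; luminescent beta-galactosidase reporter signal from transgenic T. cruzi replicating inside host cells; inhibitors lower the luminescence signal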
[14] = cytotoxicity toward NIH3T3 fibroblasts, dose response, counter-screen, cell-based, ATP luminescence, mouse fibroblasts (AID 2010); format: functional;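 further: cells exposed to compound for about 90 hours before reading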
[15] = test system: Streptococcus; experiment: Group A Streptococcus viability loss, dose response, counter-screen for streptokinase expression inhibitor project, luminescence, BacTiterGlo (AID 1915); format: functional, organism-based;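 further: potency for reduction of bacterial viability or growth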
[16] = Luminescence Cell-Based Dose Retest to Confirm Inhibitors of Cancer Stem Cells. [Related pubchem assays (depositor defined):AID2717, AID2721]; format: functional; conditions: Homo sapiens
[17] = miR-122 activators in hepatoma reporter cells, dose response, cell-based, Huh7 psiCHECK-miR122, Renilla luciferase, cherry-picked (AID 651956); format: functional;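 further: huh7 hepatoma cells stably carrying a psiCHECK-2 miR-122 sensor plasmid; renilla luciferase signal reporting endogenous miR-122 activity after 48 h compound exposure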
[18] = HEK293T cytotoxicity, dose response, cytotoxicity control for miR-122 modulator project, cell-based, activator set, cherry-pick (AID 720690); format: functional;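 further: HEK293T human cells scored for general mammalian cytotoxicity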
[19] = microbe, parasite or virus in culture; format: functional; conditions: Mycobacterium tuberculosis
[20] = biological target: T4, Ubiquitin-conjugating enzyme E2 N (Homo sapiens, UniProt P61088); format: functional;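 further: Dose-response confirmation in a TR-FRET assay detecting UBC13-driven polyubiquitin chain formation, inhibition measured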
T4 sequence (P61088 whole entry): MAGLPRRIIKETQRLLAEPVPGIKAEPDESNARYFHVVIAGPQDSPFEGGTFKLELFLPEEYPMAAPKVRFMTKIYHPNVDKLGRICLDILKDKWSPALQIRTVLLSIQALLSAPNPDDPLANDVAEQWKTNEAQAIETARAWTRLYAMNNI

[21] = biological target: Melanocortin receptor 4 (Homo sapiens, UniProt P32245); format: functional, cell-based;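 further: Cell-based assay with luminescence read-out, confirmatory dose-response testing for agonist activity of biased ligands at MC4R; human U2OS cells with tagged receptor and beta-arrestin; potency of agonists that increase receptor coupling to beta-arrestin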
Sequence of Melanocortin receptor 4 (P32245 whole entry): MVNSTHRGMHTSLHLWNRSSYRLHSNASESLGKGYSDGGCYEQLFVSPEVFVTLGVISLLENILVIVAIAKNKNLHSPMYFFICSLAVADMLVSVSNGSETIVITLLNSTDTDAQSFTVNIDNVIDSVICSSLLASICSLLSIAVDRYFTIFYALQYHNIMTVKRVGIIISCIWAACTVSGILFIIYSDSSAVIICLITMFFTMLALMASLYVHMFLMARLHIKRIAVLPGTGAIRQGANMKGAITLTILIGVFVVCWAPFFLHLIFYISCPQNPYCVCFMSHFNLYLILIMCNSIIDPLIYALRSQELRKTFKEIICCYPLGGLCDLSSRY

Sequence of Ras and Rab interactor 1/Tyrosine-protein kinase ABL1 (P00519 whole entry): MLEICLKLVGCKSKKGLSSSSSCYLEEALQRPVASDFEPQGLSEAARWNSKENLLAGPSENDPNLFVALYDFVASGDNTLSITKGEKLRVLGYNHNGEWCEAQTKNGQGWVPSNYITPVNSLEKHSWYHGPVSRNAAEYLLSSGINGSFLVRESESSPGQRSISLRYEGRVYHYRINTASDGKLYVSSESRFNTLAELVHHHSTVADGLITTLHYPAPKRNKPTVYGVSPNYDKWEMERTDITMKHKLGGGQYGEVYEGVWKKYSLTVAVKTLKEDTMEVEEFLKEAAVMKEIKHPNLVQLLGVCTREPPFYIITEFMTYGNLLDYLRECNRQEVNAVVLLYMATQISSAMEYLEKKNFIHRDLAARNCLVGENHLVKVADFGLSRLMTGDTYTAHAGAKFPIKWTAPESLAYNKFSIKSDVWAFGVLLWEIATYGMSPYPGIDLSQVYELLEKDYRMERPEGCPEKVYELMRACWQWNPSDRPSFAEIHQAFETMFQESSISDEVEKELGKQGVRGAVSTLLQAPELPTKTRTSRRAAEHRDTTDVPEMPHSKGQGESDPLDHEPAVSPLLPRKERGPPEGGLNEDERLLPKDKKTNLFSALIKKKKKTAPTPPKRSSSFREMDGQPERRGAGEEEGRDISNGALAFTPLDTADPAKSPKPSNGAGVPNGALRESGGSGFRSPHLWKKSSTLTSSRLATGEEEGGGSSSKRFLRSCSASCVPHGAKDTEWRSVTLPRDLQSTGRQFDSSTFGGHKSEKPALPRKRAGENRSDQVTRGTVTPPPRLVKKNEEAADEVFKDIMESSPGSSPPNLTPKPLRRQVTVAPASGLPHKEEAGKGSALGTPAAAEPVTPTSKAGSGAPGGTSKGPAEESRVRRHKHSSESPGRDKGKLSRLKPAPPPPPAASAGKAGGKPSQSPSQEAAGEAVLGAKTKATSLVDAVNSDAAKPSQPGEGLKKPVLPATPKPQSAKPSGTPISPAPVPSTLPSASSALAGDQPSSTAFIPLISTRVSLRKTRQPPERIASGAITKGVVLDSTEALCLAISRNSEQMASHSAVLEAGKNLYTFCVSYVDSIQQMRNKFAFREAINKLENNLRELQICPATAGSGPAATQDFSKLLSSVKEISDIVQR
Sequence of Ras and Rab interactor 1/Tyrosine-protein kinase ABL1 (Q13671 whole entry): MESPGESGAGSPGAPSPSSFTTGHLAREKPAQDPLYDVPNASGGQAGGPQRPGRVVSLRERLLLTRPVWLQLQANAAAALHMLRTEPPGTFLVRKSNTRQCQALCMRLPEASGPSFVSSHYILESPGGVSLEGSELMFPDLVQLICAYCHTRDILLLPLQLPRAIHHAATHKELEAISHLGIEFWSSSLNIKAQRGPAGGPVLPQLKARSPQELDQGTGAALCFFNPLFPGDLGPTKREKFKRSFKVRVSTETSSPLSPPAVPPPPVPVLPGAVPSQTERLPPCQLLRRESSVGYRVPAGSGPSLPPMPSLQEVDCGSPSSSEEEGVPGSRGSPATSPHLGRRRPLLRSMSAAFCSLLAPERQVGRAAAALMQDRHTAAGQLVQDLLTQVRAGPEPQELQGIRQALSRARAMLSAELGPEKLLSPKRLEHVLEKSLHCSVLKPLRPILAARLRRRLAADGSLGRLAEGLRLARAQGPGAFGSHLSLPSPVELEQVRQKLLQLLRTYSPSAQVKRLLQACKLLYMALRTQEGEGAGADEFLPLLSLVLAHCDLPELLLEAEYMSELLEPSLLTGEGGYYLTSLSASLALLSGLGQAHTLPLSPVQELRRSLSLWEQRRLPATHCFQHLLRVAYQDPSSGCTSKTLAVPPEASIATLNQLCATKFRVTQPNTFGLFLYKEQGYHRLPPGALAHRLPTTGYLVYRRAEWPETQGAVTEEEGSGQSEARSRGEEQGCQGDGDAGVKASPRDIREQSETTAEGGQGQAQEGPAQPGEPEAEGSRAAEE

For `COc1ccccc1OCc1ccc(C(=O)N2CCN(C(=O)c3ccco3)CC2)cc1`, the IC50 [1] was 36 µM (inactive).

For `COC(=O)c1ccc(COC(=O)C23CC4CC(CC(O)(C4)C2)C3)o1`, the IC50 [1] was 17.4 µM (inactive).

With `O=C(Nc1nc(-c2cccs2)cs1)c1cccc(S(=O)(=O)N2CCCCCC2)c1` the IC50 [2] was 19.2 µM (active).

With `CCOc1ccc(NC(=O)Cc2cccc3ccccc23)c([N+](=O)[O-])c1` the IC50 [3] was > 67.5 µM (inactive).

In the case of `Cn1nccc1C(=O)NC1CCCc2c1cnn2-c1ccc(C(C)(C)C)cc1` (centres undefined), the IC50 [4] is reported as 0.2 µM (active), the IC50 [5] is reported as 0.232 µM (active) and the AC50 [6] is reported as 1.62 µM (active). For the same compound, the IC50 [7] was 0.143 µM (active), the EC50 [8] was > 29.9 µM (inactive) and the IC50 [9] was 1.25 µM (active). The IC50 [10] was 16.4 µM (active).

With `COc1ccc(-c2cc(C3CCN(c4ccc(C(C)=O)cc4[N+](=O)[O-])CC3)[nH]n2)cc1` the EC50 [11] was 2.74 µM (active), the EC50 [12] was > 150 µM (not active) and the EC50 [13] was 1.87 µM (active). The EC50 [14] was > 60 µM (not active), the EC50 [15] was 24.3 µM (active) and the AC50 [16] was 2.46 µM (active). For the same compound, the AC50 [17] was 23 µM (active) and the AC50 [18] was 17.6 µM (active).

With `CN(C)CCOc1ccc(-c2c(-c3ccsc3)sc3ccccc23)cc1` the CC50 [19] was 11.3 µM (active), the AC50 [16] was 3.47 µM (active) and the IC50 [20] was > 20 µM (inactive). The EC50 [21] was > 89.2 µM (inactive).

With `CC(=O)Nc1cc(-c2ccc(F)cc2)cn2c(-c3ccc(F)c(Cl)c3)cnc12` the EC50 [21] was > 89.2 µM (inactive).
